Experimental findings from patent US12612409B2, “Pyrrolopyrimidines as CFTR potentiators” (Cystic Fibrosis Foundation, priority 2016, dated 2026) are described below.

In test [1] the target is T1, CFTR in F508del/F508del primary CF hBE cells (Homo sapiens, UniProt P13569, DEL508-508).
T1 construct: Primary cystic fibrosis human bronchial epithelial (CF hBE) cells were expanded and cultured; endogenous in cells; host or cells: primary CF human bronchial epithelial cells, genotype F508del/F508del
T1 sequence (P13569 with tags, fused parts or gaps DEL508-508): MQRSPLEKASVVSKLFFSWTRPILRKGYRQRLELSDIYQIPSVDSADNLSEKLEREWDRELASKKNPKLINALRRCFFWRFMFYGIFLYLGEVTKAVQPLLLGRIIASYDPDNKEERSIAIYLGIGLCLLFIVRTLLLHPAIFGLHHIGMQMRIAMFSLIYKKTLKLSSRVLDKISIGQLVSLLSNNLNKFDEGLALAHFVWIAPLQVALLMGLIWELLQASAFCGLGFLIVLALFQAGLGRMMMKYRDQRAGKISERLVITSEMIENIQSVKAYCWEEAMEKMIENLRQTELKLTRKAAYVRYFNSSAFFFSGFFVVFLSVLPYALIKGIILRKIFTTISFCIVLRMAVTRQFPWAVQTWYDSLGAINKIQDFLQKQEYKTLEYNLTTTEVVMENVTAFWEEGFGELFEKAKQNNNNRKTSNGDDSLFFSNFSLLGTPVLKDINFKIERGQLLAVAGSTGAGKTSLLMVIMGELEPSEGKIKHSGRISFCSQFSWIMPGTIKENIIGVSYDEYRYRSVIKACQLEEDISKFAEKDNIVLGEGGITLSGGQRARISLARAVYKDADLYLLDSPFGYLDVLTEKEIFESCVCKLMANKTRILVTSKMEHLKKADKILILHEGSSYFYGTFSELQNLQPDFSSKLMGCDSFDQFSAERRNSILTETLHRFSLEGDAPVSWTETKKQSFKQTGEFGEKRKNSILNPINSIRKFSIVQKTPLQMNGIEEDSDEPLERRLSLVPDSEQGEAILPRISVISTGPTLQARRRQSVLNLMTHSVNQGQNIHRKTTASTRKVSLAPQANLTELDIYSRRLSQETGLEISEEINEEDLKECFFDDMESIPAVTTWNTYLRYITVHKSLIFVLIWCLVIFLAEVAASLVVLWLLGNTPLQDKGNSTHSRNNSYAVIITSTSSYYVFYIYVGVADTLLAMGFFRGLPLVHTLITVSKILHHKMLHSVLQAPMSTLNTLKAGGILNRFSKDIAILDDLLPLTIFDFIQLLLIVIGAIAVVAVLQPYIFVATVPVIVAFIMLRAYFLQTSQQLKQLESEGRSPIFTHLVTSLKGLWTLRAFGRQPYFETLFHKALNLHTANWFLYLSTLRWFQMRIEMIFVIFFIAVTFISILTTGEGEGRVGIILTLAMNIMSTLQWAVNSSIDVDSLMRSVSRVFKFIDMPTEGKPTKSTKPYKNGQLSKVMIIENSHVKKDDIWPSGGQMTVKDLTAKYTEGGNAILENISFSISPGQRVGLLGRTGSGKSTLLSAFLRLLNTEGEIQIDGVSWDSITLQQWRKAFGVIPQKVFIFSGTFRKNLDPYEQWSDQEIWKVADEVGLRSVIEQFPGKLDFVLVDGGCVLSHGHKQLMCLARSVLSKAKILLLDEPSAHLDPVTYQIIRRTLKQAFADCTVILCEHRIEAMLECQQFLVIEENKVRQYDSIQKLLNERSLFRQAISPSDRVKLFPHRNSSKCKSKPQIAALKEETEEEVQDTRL
Kind of test: Ussing chamber electrophysiology assay of CFTR potentiation in F508del/F508del CF bronchial epithelial cells (27° C.). In kind it is cell-based. The procedure, abridged: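 Well-differentiated primary CF hBE cells (>30 days air/liquid interface) in Ussing chambers, HEPES saline both sides, voltage clamped to zero. Amiloride 30 uM, forskolin 10 uM, four rising compound concentrations, then CFTRinh-172 20 uM added at 20-25 min intervals. Short-circuit current scaled to DMSO (0%) and a positive control potentiator maximum (100%).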

Test [2] has as its target T2, recombinant F508del V470 CFTR in Fischer rat thyroid (FRT) cells (Homo sapiens, UniProt P13569, DEL508-508).
T2 construct: expressed in transfected cells
The test is described as follows: FRT ion flux assay of F508del CFTR potentiation. In kind it is cell-based. Conditions: FRT cells expressing F508del V470 CFTR, forskolin 20 uM, 27° C. pre-incubation. The procedure, abridged:
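FRT cells co-expressing F508del V470 CFTR and halide-sensitive YFP, temperature-corrected at 27° C for 16-24 h, then treated 30 min with compound plus 20 uM forskolin. Iodide addition quenches YFP, read after ~21 s; ratio scaled to DMSO (0%) and positive control potentiator (100%).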

As usually defined, the EC50 is the concentration needed to bring the measured effect to its halfway point.

T2 sequence (P13569 with tags, fused parts or gaps DEL508-508): as above

As to `CCC(c1cn(-c2ccccc2)nn1)n1cc(-c2cncnc2OC)c2c(N)ncnc21` (single isomer, unassigned; enantiomer 1) [Example 127, (−) 5-(4-Methoxypyrimidin-5-yl)-7-[1-(1-phenyl-1H-1,2,3-triazol-4-yl)propyl]-7H-pyrrolo[2,3-d]pyrimidin-4-amine, enantiomer 1], the EC50 in test [1] was determined as 448 nM; in test [2], 408 nM.

Turning to `CCC(c1cn(-c2ccccc2)nn1)n1cc(-c2cnc(C(F)(F)F)nc2)c2c(N)ncnc21` (single isomer, unassigned; enantiomer 1) [Example 129, 7-[1-(1-Phenyl-1H-1,2,3-triazol-4-yl)propyl]-5-[2-(trifluoromethyl)pyrimidin-5-yl]-7H-pyrrolo[2,3-d]pyrimidin-4-amine, enantiomer 1], the figures for the EC50 in test [1] and in test [2] were 10.7 nM and 8.46 nM, respectively.

As for `CCC(c1cn(-c2ccccc2F)nn1)n1cc(-c2ccc(Cl)cc2)c2c(N)ncnc21` (single isomer, unassigned; enantiomer 1) [Example 131, 5-(4-Chlorophenyl)-7-{1-[1-(2-fluorophenyl)-1H-1,2,3-triazol-4-yl]propyl}-7H-pyrrolo[2,3-d]pyrimidin-4-amine, enantiomer 1], the EC50 was 282 nM in test [1] and 623 nM in test [2].

In the case of `CCC(c1cn(-c2ccccc2F)nn1)n1cc(-c2cncnc2OC)c2c(N)ncnc21` (single isomer, unassigned; enantiomer 1) [Example 133, (−) 7-{1-[1-(2-Fluorophenyl)-1H-1,2,3-triazol-4-yl]propyl}-5-(4-methoxypyrimidin-5-yl)-7H-pyrrolo[2,3-d]pyrimidin-4-amine, enantiomer 1], the EC50 came to 721 nM in test [1] and 918 nM in test [2].

As for `CCC(c1cn(-c2ccccc2F)nn1)n1cc(-c2nccnc2OC)c2c(N)ncnc21` (single isomer, unassigned; enantiomer 1) [Example 135, (−) 7-{1-[1-(2-Fluorophenyl)-1H-1,2,3-triazol-4-yl]propyl}-5-(3-methoxypyrazin-2-yl)-7H-pyrrolo[2,3-d]pyrimidin-4-amine, enantiomer 1], the EC50 in test [1] turned out to be 65.2 nM; in test [2], 203 nM.

`CCC(c1cn(-c2ccccc2F)nn1)n1cc(-c2cnc(C(F)(F)F)nc2)c2c(N)ncnc21` (single isomer, unassigned; enantiomer 1) [Example 137, 7-{1-[1-(2-Fluorophenyl)-1H-1,2,3-triazol-4-yl]propyl}-5-[2-(trifluoromethyl)pyrimidin-5-yl]-7H-pyrrolo[2,3-d]pyrimidin-4-amine, enantiomer 1]: the figures for the EC50 in test [1] and in test [2] were 10.3 nM and 5.86 nM, respectively.

On to `CCC(c1cn(-c2ccccc2F)nn1)n1cc(-c2cc(F)cnc2OC)c2c(N)ncnc21` (single isomer, unassigned; enantiomer 1) [Example 139, (+) 5-(5-Fluoro-2-methoxypyridin-3-yl)-7-{1-[1-(2-fluorophenyl)-1H-1,2,3-triazol-4-yl]propyl}-7H-pyrrolo[2,3-d]pyrimidin-4-amine, enantiomer 1], for which the EC50 stood at 3 nM in test [1] and 5.71 nM in test [2].

For `CCC(c1cn(-c2ccccc2F)nn1)n1cc(-c2ccc(OC(F)F)nc2)c2c(N)ncnc21` (single isomer, unassigned; enantiomer 1) [Example 141, (−) 5-[6-(Difluoromethoxy)pyridin-3-yl]-7-{1-[1-(2-fluorophenyl)-1H-1,2,3-triazol-4-yl]propyl}-7H-pyrrolo[2,3-d]pyrimidin-4-amine, enantiomer 1], the figures for the EC50 in test [1] and in test [2] were 133 nM and 277 nM, respectively.

For `CCC(c1cn(-c2ccccc2F)nn1)n1cc(-c2cnc(C(F)F)nc2)c2c(N)ncnc21` (single isomer, unassigned; enantiomer 1) [Example 143, 5-[2-(Difluoromethyl)pyrimidin-5-yl]-7-{1-[1-(2-fluorophenyl)-1H-1,2,3-triazol-4-yl]propyl}-7H-pyrrolo[2,3-d]pyrimidin-4-amine, enantiomer 1], the EC50 turned out to be 26 nM in test [1] and 10.5 nM in test [2].

Take `CCC(c1cn(-c2ccccc2F)nn1)n1cc(-c2cnc(N(C)C)nc2)c2c(N)ncnc21` (single isomer, unassigned; enantiomer 1) [Example 145, 5-[2-(Dimethylamino)pyrimidin-5-yl]-7-{1-[1-(2-fluorophenyl)-1H-1,2,3-triazol-4-yl]propyl}-7H-pyrrolo[2,3-d]pyrimidin-4-amine, enantiomer 1]: the EC50 in test [1] stood at 29.7 nM; in test [2], 26 nM.

On to `CCC(c1cn(-c2ccc(F)cc2)nn1)n1cc(-c2cncnc2OC)c2c(N)ncnc21` (single isomer, unassigned; enantiomer 1) [Example 149, (+) 7-{1-[1-(4-Fluorophenyl)-1H-1,2,3-triazol-4-yl]propyl}-5-(4-methoxypyrimidin-5-yl)-7H-pyrrolo[2,3-d]pyrimidin-4-amine, enantiomer 1], for which the EC50 in test [1] worked out at 45.3 nM; in test [2], 28.9 nM.

Turning to `CCC(c1cn(-c2ccc(F)c(F)c2)nn1)n1cc(-c2cncnc2OC)c2c(N)ncnc21` (single isomer, unassigned; enantiomer 1) [Example 151, (+) 7-{1-[1-(3,4-Difluorophenyl)-1H-1,2,3-triazol-4-yl]propyl}-5-(4-methoxypyrimidin-5-yl)-7H-pyrrolo[2,3-d]pyrimidin-4-amine, enantiomer 1], the EC50 came to 35.5 nM in test [1] and 34.1 nM in test [2].

For `CCC(c1cn(-c2ccc(F)c(F)c2)nn1)n1cc(-c2cnc(C(F)(F)F)nc2)c2c(N)ncnc21` (single isomer, unassigned; enantiomer 1) [Example 153, 7-{1-[1-(3,4-Difluorophenyl)-1H-1,2,3-triazol-4-yl]propyl}-5-[2-(trifluoromethyl)pyrimidin-5-yl]-7H-pyrrolo[2,3-d]pyrimidin-4-amine, enantiomer 1], the EC50 came to 19.8 nM in test [1] and 59 nM in test [2].

For `CCC(c1cn(-c2ccc(F)c(F)c2)nn1)n1cc(-c2cc(F)cnc2OC)c2c(N)ncnc21` (single isomer, unassigned; enantiomer 1) [Example 155, 7-{1-[1-(3,4-Difluorophenyl)-1H-1,2,3-triazol-4-yl]propyl}-5-(5-fluoro-2-methoxypyridin-3-yl)-7H-pyrrolo[2,3-d]pyrimidin-4-amine, enantiomer 1], the EC50 in test [1] came out at 9.17 nM; in test [2], 38.6 nM.

`CCC(c1cn(-c2ccc(F)c(F)c2)nn1)n1cc(-c2cnc(OC)c(F)c2)c2c(N)ncnc21` (single isomer, unassigned; enantiomer 1) [Example 157, 7-{1-[1-(3,4-Difluorophenyl)-1H-1,2,3-triazol-4-yl]propyl}-5-(5-fluoro-6-methoxypyridin-3-yl)-7H-pyrrolo[2,3-d]pyrimidin-4-amine, enantiomer 1]: the EC50 is 239 nM in test [1] and 433 nM in test [2].

For `CCC(c1cn(-c2ccc(F)cc2F)nn1)n1cc(-c2cncnc2OC)c2c(N)ncnc21` (single isomer, unassigned; enantiomer 1) [Example 159, (+) 7-{1-[1-(2,4-Difluorophenyl)-1H-1,2,3-triazol-4-yl]propyl}-5-(4-methoxypyrimidin-5-yl)-7H-pyrrolo[2,3-d]pyrimidin-4-amine, enantiomer 1], the EC50 in test [1] worked out at 35.5 nM; in test [2], 18.5 nM.

Turning to `CCC(c1cn(-c2ccc(F)cc2F)nn1)n1cc(-c2cc(F)cnc2OC)c2c(N)ncnc21` (single isomer, unassigned; enantiomer 1) [Example 163, 7-{1-[1-(2,4-Difluorophenyl)-1H-1,2,3-triazol-4-yl]propyl}-5-(5-fluoro-2-methoxypyridin-3-yl)-7H-pyrrolo[2,3-d]pyrimidin-4-amine, enantiomer 1], the EC50 stood at 97.1 nM in test [1] and 296 nM in test [2].

In the case of `CCC(c1cn(-c2ccc(F)cc2F)nn1)n1cc(-c2cnc(OC)c(F)c2)c2c(N)ncnc21` (single isomer, unassigned; enantiomer 1) [Example 165, 7-{1-[1-(2,4-Difluorophenyl)-1H-1,2,3-triazol-4-yl]propyl}-5-(5-fluoro-6-methoxypyridin-3-yl)-7H-pyrrolo[2,3-d]pyrimidin-4-amine, enantiomer 1], the EC50 in test [1] worked out at 247 nM; in test [2] it was 728 nM.

`CCC(c1cn(-c2ccc(F)cc2F)nn1)n1cc(-c2cnc(C(F)F)nc2)c2c(N)ncnc21` (single isomer, unassigned; enantiomer 1) [Example 167, 5-[2-(Difluoromethyl)pyrimidin-5-yl]-7-{1-[1-(2,4-difluorophenyl)-1H-1,2,3-triazol-4-yl]propyl}-7H-pyrrolo[2,3-d]pyrimidin-4-amine, enantiomer 1]: the EC50 in test [1] is 50.5 nM; in test [2] it was 25 nM.

As to `CCC(c1cn(-c2cccc(F)c2F)nn1)n1cc(-c2cc(F)cnc2OC)c2c(N)ncnc21` (single isomer, unassigned; enantiomer 1) [Example 169, 7-{1-[1-(2,3-Difluorophenyl)-1H-1,2,3-triazol-4-yl]propyl}-5-(5-fluoro-2-methoxypyridin-3-yl)-7H-pyrrolo[2,3-d]pyrimidin-4-amine, enantiomer 1], the EC50 in test [1] is 4.9 nM; in test [2], 7.98 nM.
